Where “and” joins values, the source holds several entries; their conditions need not be identical. Equal entries are not always repeated.
Tested on: anterior chamber aqueous humor pressure load rat model
Experiment: Retinal thickness (IPL, INL, ONL) in retinal damage model induced by anterior chamber aqueous humor pressure load
Assay type: in vivo, Rat; Slc: SD
Conditions: for Thickness of IPL (μm) / Thickness of ONL (μm) / Thickness of INL (μm): 900 μm from optic disk, 14 days after model creation, mean ± S.E., 10 animals
Procedure: • Name: Compound 9 • Source: Synthesized in the above Examples • Used amount: 0.4 mL (50 mg/mL solution) • Storage conditions: Freezing, light shielding
Method for preparing test substance (1 mg/mL): A high concentration solution prepared at 50 mg/mL was diluted 50 times with a medium to prepare a 1 mg/mL administration solution.
• Name: MK-801 • Distributor: SIGMA-ALDRICH • Use amount: 0.0501 g • Storage condition: refrigerated (2° C. to 8° C.)
Method for preparing positive control substance (10 mg/mL): 0.0501 g was weighed out and made up to a total volume of 5 mL with a control substance (physiological saline).
• Species and strains: Rat; Slc: SD • Number of animals on arrival and sex: 50 males • Age in weeks at arrival: 6 weeks old • Body weight range at arrival: 147.2 to 170.0 g • Source: Japan SLC, Inc.
Grouping was performed two days before the first creation of the retinal damage model induced by an anterior chamber aqueous humor pressure load. Using the daily body weight as an index, stratified random allocation was performed using SAS (Ver. 9.3, SAS Institute Japan Ltd.) and EXSUS (Ver. 8.0, CAC Croit Corporation) so that an average value of the body weights of each group was approximately uniform.
• Administration route: Eyedrop administration, intravenous administration • Administration method (eyedrop): Eyedrop administration was performed on a treated eye (right eye) of a rat using a micropipette 4 times a day (at intervals of 1.5 hours or more). • Administration method (intravenous): The amount of administration solution, calculated from the body weight on the day of administration, was administered from the tail vein using a syringe and an injection needle about 30 minutes before ischemic load. • Time of administration: Administration was performed according to the following schedule.
1. 10 mg/kg xylazine hydrochloride was intramuscularly administered on the model creation day (day 0). A rat was placed in an anesthesia box and subjected to general anesthesia with isoflurane (5%, oxygen:nitrous oxide=1:3). When anesthesia was effective, the rat was taken out of the anesthesia box, an inhalation anesthetic mask was worn, and anesthesia was maintained with isoflurane (1% to 5%, oxygen nitrous oxide=1:3).
2. The body temperature was maintained at 37° C. with a warming mat, and a mydrin P ophthalmic solution was instilled in the right eye (treated eye) of the rat to dilate the pupil, then the cravit ophthalmic solution 1.5% (Santen Pharmaceutical Co., Ltd.) was instilled.
3. A bottle of an IV bag containing physiological saline was previously suspended so that a water surface was 155 cm (100 mmHg or more) higher than the eye of the rat. The IV bag was connected to a pediatric infusion set (Terumo Corporation), a 27 G injection needle thereof was inserted into and fixed to the anterior chamber while slightly dripping the liquid from a needle tip. The model was created in the light phase (6:00 to 18:00) in consideration of the diurnal variation of the intraocular pressure.
4. After the needle was inserted into the anterior chamber, pressure (100 mmHg or more) was loaded and maintained in the anterior chamber by associating the reflux system.
5. After an ischemic load for 45 minutes, the injection needle and the like were removed, the inhalation anesthetic mask was removed, and the rat was sufficiently woken up under a warming mat, and then returned to the cage.
6. For 2 days after surgery, 10 mg/kg xylazine hydrochloride was intramuscularly administered as an analgesic for the purpose of alleviating the pain after the treatment.
1. Fourteen days after model creation, general anesthesia was performed with isoflurane (5%, oxygen:nitrous oxide=1:3), euthanasia was then performed by exsanguination, a suture was placed as a marker at the 12 o'clock position of the ocular conjunctiva, and eyeball enucleation was performed.
2. […]

[1] = 1 mg/mL eye drop 4 times/day for 13 days from the day after model creation (test group 3)
[2] = 1 mg/mL eye drop 4 times/day for 13 days from the day after model creation (test group 3), listed as compound 9
[3] = (pre) 1 mg/mL eye drop 4 times/day on the 2 days before model creation (test group 2)
[4] = (pre) 1 mg/mL eye drop 4 times/day on the 2 days before model creation (test group 2), listed as compound 9
[5] = compound 9 (pre), 1 mg/mL eye drop, right eye, individual animals 201-210

Compound: CC[C@@]1(C)Oc2cc(ccc2O)C[C@H](NC)C(=O)N[C@@H](C(C)C)C(=O)N[C@@H]1C(=O)N[C@@H](CC(=O)O)C(=O)O [Compound 9]
- Thickness of IPL (μm) [1]: 44.32±1.47 μm
- Thickness of ONL (μm) [1]: 39.42±1.92 μm
- Thickness of INL (μm) [2]: 28.71 ± 1.67 μm
- Thickness of ONL (μm) [2]: 39.42 ± 1.92 μm
- Thickness of INL (μm) [3]: 30.39±1.24 μm
- Thickness of IPL (μm) [3]: 41.51±1.27 μm
- Thickness of ONL (μm) [3]: 42.55±1.13 μm
- Thickness of INL (μm) [4]: 30.39 ± 1.24 μm
- Thickness of ONL (μm) [4]: 42.55 ± 1.13 μm
- Inhibitory effect on retinal damage induced by ischemia of aqueous humor pressure load (anterior chamber aqueous humor pressure load rat model, overall conclusion): inhibitory effect on retinal damage induced by ischemia of aqueous humor pressure load was observed
- Thickness of ONL, distance from optic disk 600 μm (single measurement) [5]: 41.121 μm and 44.598 μm and 41.326 μm (2×) and 41.066 μm and 41.161 μm and 38.743 μm and 41.131 μm and 38.275 μm and 37.963 μm and 43.645 μm and 43.106 μm and 45.168 μm and 47.317 μm and 40.325 μm and 41.137 μm and 43.653 μm and 45.150 μm and 48.296 μm and 46.805 μm and 44.685 μm and 46.160 μm and 42.772 μm and 45.479 μm and 40.612 μm and 40.588 μm and 46.031 μm and 41.299 μm and 42.932 μm and 48.910 μm
- Thickness of ONL, distance from optic disk 900 μm (single measurement) [5]: 39.011 μm and 42.742 μm and 45.091 μm and 47.744 μm and 45.684 μm and 43.996 μm and 37.237 μm and 36.389 μm and 38.143 μm and 43.578 μm and 39.518 μm and 41.375 μm and 35.794 μm and 34.452 μm and 41.663 μm and 42.383 μm and 44.814 μm and 41.883 μm and 43.824 μm and 46.139 μm and 43.354 μm and 38.661 μm and 41.202 μm and 40.552 μm and 46.165 μm and 45.398 μm and 48.471 μm and 47.795 μm and 47.248 μm and 46.278 μm
- Thickness of ONL, distance from optic disk 300 μm (single measurement) (compound 9 (pre), 1 mg/mL eye drop, right eye, individual animals 201-210, aqueous humor pressure load rat model): 50.813 μm and 51.311 μm and 53.250 μm and 34.452 μm and 30.709 μm and 34.312 μm and 40.039 μm and 41.413 μm and 11.468 μm and 39.811 μm and 37.328 μm and 39.938 μm and 33.741 μm and 35.794 μm and 35.603 μm and 42.742 μm and 44.362 μm and 44.355 μm and 36.433 μm and 40.355 μm and 37.980 μm and 39.617 μm and 40.341 μm and 39.065 μm and 40.883 μm and 41.062 μm and 40.112 μm and 37.690 μm and 36.851 μm and 39.911 μm
- Thickness of INL (μm), Distance from Optic Disk 300 μm (compound 9 (pre), 1 mg/mL eye drop, right eye, 300 μm from optic disk, individual measurements per animal): 33.065 μm (2×) and 33.507 μm and 34.677 μm and 27.561 μm and 24.567 μm and 22.703 μm and 32.389 μm and 34.110 μm and 29.740 μm and 25.207 μm and 23.667 μm and 23.845 μm and 26.312 μm and 23.484 μm and 24.843 μm and 33.881 μm and 35.521 μm and 29.211 μm and 29.882 μm and 27.608 μm and 23.876 μm and 25.810 μm and 24.277 μm and 32.198 μm and 33.996 μm and 30.756 μm and 28.424 μm and 29.579 μm and 30.220 μm
- Thickness of IPL (μm), Distance from Optic Disk 300 μm (compound 9 (pre), 1 mg/mL eye drop, right eye, 300 μm from optic disk, individual measurements per animal, listed as compond 9): 30.656 μm and 25.003 μm and 29.032 μm and 29.077 μm and 33.909 μm (2×) and 31.903 μm and 34.939 μm and 37.800 μm and 36.389 μm and 29.133 μm and 28.638 μm and 29.937 μm and 29.144 μm (2×) and 35.013 μm and 33.871 μm and 31.072 μm and 34.110 μm and 29.907 μm and 35.630 μm and 33.931 μm and 27.028 μm and 28.472 μm and 34.310 μm and 34.680 μm and 32.998 μm and 28.183 μm and 25.310 μm and 26.057 μm
- Thickness of INL (μm), Distance from Optic Disk 300 μm, Mean (compound 9 (pre), 1 mg/mL eye drop, right eye, 300 μm from optic disk, mean per animal): 33.750 μm and 24.944 μm and 32.080 μm and 24.240 μm and 24.880 μm and 34.156 μm and 28.900 μm and 24.654 μm and 32.317 μm and 29.408 μm
